Assay results as given in PubChem BioAssay AID248 (DTP/NCI, 2004).
Values joined by “and” are separate entries in the source; they are usually repeats but may differ in a detail not shown here. Equal entries are not always repeated. Inconclusive results and toxic doses are left out. Cut-off read from the data, not from the text of the source: active = T/C of 150% or more; inactive = T/C below 125%.

Test system: L1210 leukemia ip in BDF1 mice, survival T/C
Assay: NCI In Vivo Anticancer Drug Screen. Data for tumor model L1210 Leukemia (intraperitoneal) in B6D2F1 (BDF1) mice
Conditions: endpoint: mean survival time, higher = longer survival
Method in brief: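 In this screen, tumor-bearing mice given compound are compared to those given vehicle, and their survival values are reported as a treated-to-control quotient.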

[1] = dose: 50.0 mg/kg/injection, schedule: Q01DX009 (ip), vehicle: saline with Tween-80
[2] = dose: 100.0 mg/kg/injection, schedule: Q04DX002 (ip), vehicle: saline with Tween-80
[3] = dose: 200.0 mg/kg/injection, schedule: Q04DX002 (ip), vehicle: saline with Tween-80
[4] = dose: 400.0 mg/kg/injection, schedule: Q04DX002 (ip), vehicle: saline with Tween-80

Measured: T/C

Clc1ccc(C#[C][Hg][C]#Cc2ccc(Cl)cc2)cc1
inactive: [1] 109 % of control | dose: 100.0 mg/kg/injection, schedule: Q01DX009 (ip), vehicle: saline with Tween-80 95 % of control | dose: 200.0 mg/kg/injection, schedule: Q01DX009 (ip), vehicle: saline with Tween-80 92 % of control

CCCCCCCCCCCCNC(=O)c1cc[n+](C)cc1
inactive: dose: 12.5 mg/kg/injection, schedule: Q04DX003 (ip), vehicle: saline 103 % of control and 88 % of control and 93 % of control | dose: 25.0 mg/kg/injection, schedule: Q04DX003 (ip), vehicle: saline 99 % of control and 87 % of control and 91 % of control | dose: 50.0 mg/kg/injection, schedule: Q04DX003 (ip), vehicle: saline 93 % of control and 91 % of control and 88 % of control

CSc1ncc(CO)c(N2CC2)n1
inactive: dose: 100.0 mg/kg/injection, schedule: Q01DX Z (ip), vehicle: methylcellulose (MC) 87 % of control

CC1(C)OC2OCC(O)C2O1 (stereo unspecified)
inactive: dose: 50.0 mg/kg/injection, schedule: Q04DX002 (ip), vehicle: saline 100 % of control | dose: 100.0 mg/kg/injection, schedule: Q04DX002 (ip), vehicle: saline 104 % of control | dose: 200.0 mg/kg/injection, schedule: Q04DX002 (ip), vehicle: saline 110 % of control

CCN(CC)CCCC(C)NC(=O)c1ccc(N(C)C)nc1 (stereo unspecified)
inactive: dose: 25.0 mg/kg/injection, schedule: Q01DX009 (ip), vehicle: water 97 % of control | dose: 50.0 mg/kg/injection, schedule: Q01DX009 (ip), vehicle: water 104 % of control | dose: 100.0 mg/kg/injection, schedule: Q01DX009 (ip), vehicle: water 101 % of control | dose: 200.0 mg/kg/injection, schedule: Q01DX009 (ip), vehicle: water 104 % of control | dose: 400.0 mg/kg/injection, schedule: Q01DX009 (ip), vehicle: water 101 % of control

COc1ccc(C(C)C(C)=O)cc1 (stereo unspecified)
inactive: [1] 95 % of control

CCOC(=O)/C(C#N)=N/O
inactive: dose: 18.8 mg/kg/injection, schedule: Q01DX009 (ip), vehicle: saline 94 % of control | dose: 18.8 mg/kg/injection, schedule: Q04DX003 (ip), vehicle: saline 95 % of control | dose: 37.5 mg/kg/injection, schedule: Q01DX009 (ip), vehicle: saline 91 % of control | dose: 37.5 mg/kg/injection, schedule: Q04DX003 (ip), vehicle: saline 97 % of control | dose: 75.0 mg/kg/injection, schedule: Q04DX003 (ip), vehicle: saline 97 % of control

CCOC(=O)c1c(C)c2c(n1C)CCCC2O (stereo unspecified)
inactive: dose: 100.0 mg/kg/injection, schedule: Q04DX003 (ip), vehicle: carboxymethylcellulose (CMC) 101 % of control | dose: 200.0 mg/kg/injection, schedule: Q04DX003 (ip), vehicle: carboxymethylcellulose (CMC) 98 % of control | dose: 400.0 mg/kg/injection, schedule: Q04DX003 (ip), vehicle: carboxymethylcellulose (CMC) 95 % of control

CC12CCCC(=O)C1CC/C(=C\c1ccco1)C2=O (stereo unspecified)
inactive: dose: 100.0 mg/kg/injection, schedule: Q01DX009 (ip), vehicle: saline 109 % of control | dose: 100.0 mg/kg/injection, schedule: Q04DX003 (ip), vehicle: saline 102 % of control | dose: 200.0 mg/kg/injection, schedule: Q01DX009 (ip), vehicle: saline 98 % of control | dose: 200.0 mg/kg/injection, schedule: Q04DX003 (ip), vehicle: saline 104 % of control | dose: 400.0 mg/kg/injection, schedule: Q01DX009 (ip), vehicle: saline 114 % of control | dose: 400.0 mg/kg/injection, schedule: Q04DX003 (ip), vehicle: saline 104 % of control

CCc1ccc(C(C)=O)o1
inactive: dose: 100.0 mg/kg/injection, schedule: Q01DX001 (ip), vehicle: other 104 % of control | dose: 200.0 mg/kg/injection, schedule: Q01DX001 (ip), vehicle: other 108 % of control | dose: 400.0 mg/kg/injection, schedule: Q01DX001 (ip), vehicle: other 111 % of control

CC(C)C1C(=O)N2CCCC2C2(O)OC(C(=O)NCCc3c[nH]c4ccccc34)(C(C)C)C(=O)N12 (stereo unspecified)
inactive: dose: 6.25 mg/kg/injection, schedule: Q04DX003 (ip), vehicle: saline with Tween-80 98 % of control | dose: 12.5 mg/kg/injection, schedule: Q04DX003 (ip), vehicle: saline with Tween-80 111 % of control | dose: 25.0 mg/kg/injection, schedule: Q04DX003 (ip), vehicle: alcohol 98 % of control | dose: 25.0 mg/kg/injection, schedule: Q04DX003 (ip), vehicle: saline with Tween-80 101 % of control | dose: 50.0 mg/kg/injection, schedule: Q04DX003 (ip), vehicle: alcohol 105 % of control | dose: 50.0 mg/kg/injection, schedule: Q04DX003 (ip), vehicle: saline with Tween-80 98 % of control | dose: 100.0 mg/kg/injection, schedule: Q04DX003 (ip), vehicle: alcohol 98 % of control | dose: 200.0 mg/kg/injection, schedule: Q04DX003 (ip), vehicle: alcohol 98 % of control

O=C(Nc1ccc(C2=NCCN2)cc1)c1cccc2c(C(=O)Nc3ccc(C4=NCCN4)cc3)cccc12
active: dose: 30.0 mg/kg/injection, schedule: Q01DX Z (ip), vehicle: carboxymethylcellulose (CMC) 156 % of control | dose: 49.0 mg/kg/injection, schedule: Q01DX Z (ip), vehicle: carboxymethylcellulose (CMC) 155 % of control | dose: 60.0 mg/kg/injection, schedule: Q01DX Z (ip), vehicle: carboxymethylcellulose (CMC) 204 % of control | dose: 74.0 mg/kg/injection, schedule: Q01DX Z (ip), vehicle: carboxymethylcellulose (CMC) 155 % of control | dose: 111.0 mg/kg/injection, schedule: Q01DX Z (ip), vehicle: carboxymethylcellulose (CMC) 176 % of control | dose: 120.0 mg/kg/injection, schedule: Q01DX Z (ip), vehicle: carboxymethylcellulose (CMC) 175 % of control
inactive: dose: 9.7 mg/kg/injection, schedule: Q01DX Z (ip), vehicle: carboxymethylcellulose (CMC) 94 % of control | dose: 14.6 mg/kg/injection, schedule: Q01DX Z (ip), vehicle: carboxymethylcellulose (CMC) 107 % of control | dose: 22.0 mg/kg/injection, schedule: Q01DX Z (ip), vehicle: carboxymethylcellulose (CMC) 122 % of control | dose: 33.0 mg/kg/injection, schedule: Q01DX Z (ip), vehicle: carboxymethylcellulose (CMC) 124 % of control

CC(=O)CC(=O)C(F)(F)F.CC(=O)CC(=O)C(F)(F)F.CC(=O)CC(=O)C(F)(F)F.[Ru]
inactive: dose: 100.0 mg/kg/injection, schedule: Q01DX001 (ip), vehicle: carboxymethylcellulose (CMC) 96 % of control | dose: 200.0 mg/kg/injection, schedule: Q01DX001 (ip), vehicle: carboxymethylcellulose (CMC) 94 % of control | dose: 400.0 mg/kg/injection, schedule: Q01DX001 (ip), vehicle: carboxymethylcellulose (CMC) 88 % of control

CC(NC(=O)C(C)(C)C)c1ccc2c(c1)OCCO2 (stereo unspecified)
inactive: [2] 106 % of control | [3] 95 % of control | [4] 95 % of control

COc1cc2cc3c4cc(OC)c(OC)cc4cc[n+]3c(/C=C/c3cc(OC)c(OC)c(OC)c3)c2cc1OC
inactive: [2] 96 % of control and 106 % of control | dose: 100.0 mg/kg/injection, schedule: Q04DX003 (ip), vehicle: saline with Tween-80 94 % of control | [3] 97 % of control and 104 % of control | dose: 200.0 mg/kg/injection, schedule: Q04DX003 (ip), vehicle: saline with Tween-80 96 % of control | [4] 104 % of control and 92 % of control | dose: 400.0 mg/kg/injection, schedule: Q04DX003 (ip), vehicle: saline with Tween-80 91 % of control

O=C(Nc1ccccc1F)OCCOc1ccc([N+](=O)[O-])cc1
inactive: dose: 100.0 mg/kg/injection, schedule: Q01DX009 (ip), vehicle: Klucel (hydroxypropylcellulose) (HPC) 96 % of control | dose: 200.0 mg/kg/injection, schedule: Q01DX009 (ip), vehicle: Klucel (hydroxypropylcellulose) (HPC) 100 % of control | dose: 400.0 mg/kg/injection, schedule: Q01DX009 (ip), vehicle: Klucel (hydroxypropylcellulose) (HPC) 94 % of control

CCOC(=O)C(Cc1ccccc1)NC(=O)N(CCCl)CCCl (stereo unspecified)
inactive: dose: 62.5 mg/kg/injection, schedule: Q01DX Z (ip), vehicle: water 97 % of control | dose: 125.0 mg/kg/injection, schedule: Q01DX Z (ip), vehicle: water 95 % of control | dose: 250.0 mg/kg/injection, schedule: Q01DX Z (ip), vehicle: water 106 % of control

COc1ccc2c3c1OC1C(C)=CCC4C(C2)N(C)CCC314 (stereo unspecified)
inactive: dose: 75.0 mg/kg/injection, schedule: Q01DX001 (ip), vehicle: saline 101 % of control

CN1CCN(c2nn3nnnc3c3ccccc23)CC1
inactive: dose: 20.0 mg/kg/injection, schedule: Q04DX003 (ip), vehicle: saline 98 % of control | dose: 40.0 mg/kg/injection, schedule: Q04DX003 (ip), vehicle: saline 104 % of control | dose: 80.0 mg/kg/injection, schedule: Q04DX003 (ip), vehicle: saline 95 % of control

C=CCN1C(=O)C(c2ccccc2)C2(CCN(C)CC2)C1=O (stereo unspecified)
inactive: dose: 25.0 mg/kg/injection, schedule: Q01DX001 (ip), vehicle: Klucel (hydroxypropylcellulose) (HPC) 108 % of control | dose: 50.0 mg/kg/injection, schedule: Q01DX001 (ip), vehicle: Klucel (hydroxypropylcellulose) (HPC) 108 % of control | dose: 100.0 mg/kg/injection, schedule: Q01DX001 (ip), vehicle: Klucel (hydroxypropylcellulose) (HPC) 98 % of control and 104 % of control
